Test results from patent US9193722B2, “Tri-cyclic pyrazolopyridine kinase inhibitors” (Vertex Pharmaceuticals Incorporated, priority 2008, dated 2015).

Columns and labels:
Assay type in all cases: biochemical
PKC delta kinase = PKC delta kinase (Homo sapiens, UniProt Q05655); experiment: PKC delta kinase inhibition, coupled-enzyme (NADH absorbance) assay, Ki; details: 150 μM ATP, 46 nM PKC delta kinase, 30° C.; read-out: Ki PKC delta
How it was run: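 PKC delta in 100 mM HEPES pH 7.5, 10 mM MgCl2, 25 mM NaCl, 0.1 mM EDTA, 0.01% Brij, equilibrated 10 min at 30° C with compound from DMSO stock. Started with ATP at 150 μM final; NADH-coupled absorbance at 340 nm followed 15 min at 30° C. Ki from initial rates by non-linear regression.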

PKC alpha kinase = PKC alpha kinase (Homo sapiens, UniProt P17252); experiment: PKC alpha kinase inhibition, coupled-enzyme (NADH absorbance) assay, Ki; details: 130 μM ATP, 4.5 nM PKC alpha kinase, 30° C.
How it was run: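 Enzyme in 100 mM HEPES pH 7.5, 10 mM MgCl2, 100 μM CaCl2, 0.01% Brij, preincubated with compound 10 min at 30 °C. Reaction started with 130 μM ATP (final); NADH consumption followed at 340 nm for 15 min at 30 °C. Ki fitted by non-linear regression of initial rates.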

PKC theta kinase = PKC theta kinase (Homo sapiens, UniProt Q04759); experiment: PKC theta kinase inhibition, coupled-enzyme (NADH absorbance) assay, Ki; details: 240 μM ATP, 18 nM PKC theta kinase, 30° C.
How it was run: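 Coupled-enzyme kinase assay following NADH absorbance at 340 nm, in 100 mM HEPES pH 7.5, 10 mM MgCl2, 25 mM NaCl, 0.1 mM EDTA, 0.01% Brij. Compound in DMSO preincubated with enzyme 10 min at 30 °C. Ki from initial rates by non-linear regression.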

Sequence of PKC delta kinase (Q05655 whole entry): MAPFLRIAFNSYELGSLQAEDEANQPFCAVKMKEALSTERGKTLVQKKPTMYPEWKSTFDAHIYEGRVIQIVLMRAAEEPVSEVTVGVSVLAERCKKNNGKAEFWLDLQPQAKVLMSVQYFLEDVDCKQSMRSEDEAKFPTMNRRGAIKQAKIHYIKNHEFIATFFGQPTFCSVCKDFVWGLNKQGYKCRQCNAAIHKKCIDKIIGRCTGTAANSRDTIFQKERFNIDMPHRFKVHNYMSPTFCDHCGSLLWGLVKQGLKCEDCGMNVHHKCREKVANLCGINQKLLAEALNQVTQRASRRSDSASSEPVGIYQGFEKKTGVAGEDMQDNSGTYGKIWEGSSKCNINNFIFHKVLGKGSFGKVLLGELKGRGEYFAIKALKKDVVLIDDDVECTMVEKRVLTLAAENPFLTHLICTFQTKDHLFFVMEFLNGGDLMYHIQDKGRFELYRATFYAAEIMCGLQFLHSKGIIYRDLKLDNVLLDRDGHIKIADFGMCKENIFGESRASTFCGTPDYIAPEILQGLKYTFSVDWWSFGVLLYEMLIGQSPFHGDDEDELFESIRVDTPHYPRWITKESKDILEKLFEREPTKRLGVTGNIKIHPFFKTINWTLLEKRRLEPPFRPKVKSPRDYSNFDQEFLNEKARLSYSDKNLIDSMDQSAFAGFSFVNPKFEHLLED
Sequence of PKC theta kinase (Q04759 whole entry): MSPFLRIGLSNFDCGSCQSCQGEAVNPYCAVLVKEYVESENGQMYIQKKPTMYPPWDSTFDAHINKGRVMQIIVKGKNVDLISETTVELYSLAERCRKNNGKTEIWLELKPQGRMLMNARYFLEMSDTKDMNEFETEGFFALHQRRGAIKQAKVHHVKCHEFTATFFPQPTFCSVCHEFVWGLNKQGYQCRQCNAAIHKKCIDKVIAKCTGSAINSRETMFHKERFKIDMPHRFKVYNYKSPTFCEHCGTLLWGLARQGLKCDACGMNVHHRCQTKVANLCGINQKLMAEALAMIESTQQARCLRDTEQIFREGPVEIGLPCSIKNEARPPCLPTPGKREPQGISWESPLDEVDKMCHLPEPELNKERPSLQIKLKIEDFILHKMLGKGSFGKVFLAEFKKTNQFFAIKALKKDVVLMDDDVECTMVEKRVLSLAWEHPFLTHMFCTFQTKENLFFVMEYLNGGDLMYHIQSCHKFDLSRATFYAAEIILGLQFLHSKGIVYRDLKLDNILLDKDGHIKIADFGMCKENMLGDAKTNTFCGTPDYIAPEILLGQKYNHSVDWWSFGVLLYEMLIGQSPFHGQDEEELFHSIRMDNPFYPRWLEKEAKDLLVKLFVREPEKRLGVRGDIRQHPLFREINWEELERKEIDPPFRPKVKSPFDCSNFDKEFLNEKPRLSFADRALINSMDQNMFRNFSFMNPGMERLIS

Ki (PKC delta kinase) [nM] | Ki (PKC alpha kinase) [nM] | Ki (PKC theta kinase) [nM] | SMILES
> 1250 | > 1250 | < 500 | NC1CCN(c2ccc(C(F)(F)F)c(-c3n[nH]c4ncccc34)n2)CC1 [Compound 126]
< 2800 | > 1250 | < 50 | CC(C)C(O)(C1CN(c2ccc(F)c(-c3n[nH]c4ncccc34)n2)CCN1)C(F)(F)F (stereo not drawn) [Compound 207]
< 50 | < 500 | < 50 | CC(C)CC1(C)CN(c2cccc(-c3n[nH]c4ncccc34)n2)CCC1N (stereo not drawn) [Compound 189]
> 2000 | > 1250 | < 500 | CC(C)C[C@H]1CN(c2ccc(C(F)(F)F)c(-c3n[nH]c4ncccc34)n2)CC[C@H]1O [Compound 91]
< 50 | < 500 | < 1 | CC(C)C(C)(O)C1CN(c2nc(-c3n[nH]c4ncccc34)ccc2F)CCN1 (stereo not drawn) [Compound 373]
< 2800 | > 1250 | < 50 | CC(C)C[C@@H]1C[C@@H](N)CN(c2ccc(F)c(-c3n[nH]c4ncccc34)n2)C1 [Compound 367]
< 2800 | < 2800 | < 50 | Fc1cccc(C2CN(c3ccc(C(F)(F)F)c(-c4n[nH]c5ncccc45)n3)CCN2)c1 (stereo not drawn) [Compound 115]
< 2800 | > 1250 | < 50 | CC(C)CC1(CN)CCCN(c2ccc(F)c(-c3n[nH]c4ncccc34)n2)C1 (stereo not drawn) [Compound 351]
< 2800 | > 1250 | < 500 | C[C@@H]1CNCCN1c1cccc(-c2n[nH]c3ncccc23)n1 [Compound 31]
> 1250 | > 1250 | > 700 | NC(=O)C1CN(c2ccc(C(F)(F)F)c(-c3n[nH]c4ncccc34)n2)CCN1 (stereo not drawn) [Compound 213]
> 1250 | > 1250 | > 700 | CC1CN(c2ccc(C(F)(F)F)c(-c3n[nH]c4ncccc34)n2)CC1CN (stereo not drawn) [Compound 332]
> 1250 | > 1250 | < 500 | CN1CCN(c2ccc(F)c(-c3n[nH]c4ncccc34)n2)CC1 [Compound 226, 3-(3-fluoro-6-(4-methylpiperazin-1-yl)pyridin-2-yl)-1H-pyrazolo[3,4-b]pyridine]
> 1250 | > 1250 | > 700 | O=C1CNCCN1c1cccc(-c2n[nH]c3ncccc23)n1 [Compound 166]
> 1250 | > 1250 | > 700 | FC(F)(F)c1ccc(N2CCC(N3CCCCC3)CC2)nc1-c1n[nH]c2ncccc12 [Compound 320]
> 1250 | > 1250 | < 50 | CC(C)(F)C(C)(O)C1CN(c2ccc(F)c(-c3n[nH]c4ncccc34)n2)CCN1 (stereo not drawn) [Compound 249]
< 2800 | > 1250 | < 50 | CC(C)CC1(O)CN(c2ccc(F)c(-c3n[nH]c4ncccc34)n2)CCC1C#N (stereo not drawn) [Compound 400]
< 500 | < 2800 | < 50 | CCCC1CN(c2cccc(-c3n[nH]c4ncccc34)n2)CCN1 (stereo not drawn) [Compound 59]
> 1250 | > 1250 | < 500 | CCC[C@H]1CN(c2cccc(-c3n[nH]c4ncccc34)n2)CC(F)(F)CN1 [Compound 227]
< 50 | < 2800 | < 1 | CC(C)C(C)(O)C1CN(c2cccc(-c3n[nH]c4ncccc34)n2)CCN1 (stereo not drawn) [Compound 177]
> 1250 | > 1250 | < 50 | OC1(C2CN(c3ccc(F)c(-c4n[nH]c5ncccc45)n3)CCN2)COC1 (stereo not drawn) [Compound 230]
< 500 | < 500 | < 50 | C[C@H]1CNCCN1c1cccc(-c2n[nH]c3ncccc23)n1 [Compound 30]
< 50 | < 500 | < 50 | c1cc(-c2n[nH]c3ncccc23)nc(N2CCNC3(CCC3)C2)c1 [Compound 187]
< 500 | < 2800 | < 50 | CC(C)C[C@H]1CN(c2ccc(Cl)c(-c3n[nH]c4ncccc34)n2)CCN1 [Compound 47]
< 500 | > 1250 | < 50 | CC(C)C(C)(O)C1CN(c2nc(-c3n[nH]c4ncccc34)ccc2F)CCN1 (stereo not drawn) [Compound 376]
> 2000 | > 1250 | < 500 | CC(C)(C)[C@H]1CN(c2ccc(C(F)(F)F)c(-c3n[nH]c4ncccc34)n2)CCN1 [Compound 77]
< 2800 | > 1250 | < 500 | NC1CCN(c2ccc(Cl)c(-c3n[nH]c4ncccc34)n2)CC1 [Compound 110]
> 1250 | > 1250 | < 500 | CCC(C)(O)C1CN(c2ccc(F)c(-c3n[nH]c4ncccc34)n2)CCN1 (stereo not drawn) [Compound 243]

Ki (PKC delta kinase) [nM] | Ki (PKC alpha kinase) [nM] | Ki (PKC theta kinase) [nM] | SMILES
> 1250 | > 1250 | < 500 | CC(C)CC1(N)CCCN(c2ccc(C(F)(F)F)c(-c3n[nH]c4ncccc34)n2)C1 (stereo not drawn) [Compound 285]
< 500 | < 500 | < 50 | CC(C)C[C@@]1(O)CN(c2ccc(F)c(-c3n[nH]c4ncccc34)n2)CC[C@@H]1N [Compound 269]
> 1250 | > 1250 | < 500 | CC(C)C[C@H]1CN(c2cccc(-c3n[nH]c4ncccc34)n2)CC(F)(F)CN1 [Compound 225]
< 500 | < 500 | < 1 | CC1(C)CC1(O)C1CN(c2ccc(F)c(-c3n[nH]c4ncccc34)n2)CCN1 (stereo not drawn) [Compound 381]
< 500 | < 2800 | < 500 | CC(C)C[C@]1(O)CN(c2ccc(C(F)(F)F)c(-c3n[nH]c4ncccc34)n2)CC[C@@H]1N [Compound 219]
< 500 | < 2800 | < 500 | c1cc(-c2n[nH]c3ncccc23)nc(C2CCNCC2)c1 [Compound 159]
> 1250 | > 1250 | < 500 | NCC1CN(c2ccc(F)c(-c3n[nH]c4ncccc34)n2)CCO1 (stereo not drawn) [Compound 395]
> 2000 | > 1250 | < 500 | Fc1cnc2[nH]nc(-c3nc(N4CCNCC4)ccc3C(F)(F)F)c2c1 [Compound 45]
> 2000 | > 1250 | < 500 | CC(C)C[C@H]1CN(c2cc(C(F)(F)F)cc(-c3n[nH]c4ncccc34)n2)CCN1 [Compound 57]
< 500 | > 1250 | < 50 | CC(O)C1CN(c2cccc(-c3n[nH]c4ncccc34)n2)CCN1 (stereo not drawn) [Compound 164]
< 50 | > 1250 | < 50 | CC(C)(O)[C@@H]1CN(c2cccc(-c3n[nH]c4ncccc34)n2)CCN1 [Compound 176]
> 1250 | > 1250 | < 50 | CC(C)(F)CC1CN(c2ccc(C(F)(F)F)c(-c3n[nH]c4ncccc34)n2)CCN1 (stereo not drawn) [Compound 102]
> 1250 | > 1250 | > 700 | CC(C)CC1(C(N)=O)CN(c2ccc(C(F)(F)F)c(-c3n[nH]c4ncccc34)n2)C1 [Compound 430]
< 500 | > 1250 | < 50 | CC(F)(F)C(C)(O)C1CN(c2ccc(F)c(-c3n[nH]c4ncccc34)n2)CCN1 (stereo not drawn) [Compound 286]
> 1250 | > 1250 | < 500 | CC(C)C[C@@]1(F)CN(c2ccc(F)c(-c3n[nH]c4ncccc34)n2)CC[C@H]1O [Compound 199]
< 50 | < 50 | < 50 | CC(C)CC1(C)CN(c2ccc(Cl)c(-c3n[nH]c4ncccc34)n2)CCN1 (stereo not drawn) [Compound 86]
> 1250 | > 1250 | < 500 | NCC1CCN(c2cc(C(F)(F)F)cc(-c3n[nH]c4ncccc34)n2)CC1 [Compound 412]
> 1250 | > 1250 | < 500 | CCC(C)(O)C1CN(c2ccc(F)c(-c3n[nH]c4ncccc34)n2)CCN1 (stereo not drawn) [Compound 244]
< 500 | > 1250 | < 50 | NCC1CCN(c2cc(CO)cc(-c3n[nH]c4ncccc34)n2)CC1 [Compound 453]
< 2800 | > 1250 | < 500 | CC(C)(N)C1CCN(c2ccc(F)c(-c3n[nH]c4ncccc34)n2)C1 (stereo not drawn) [Compound 360]
< 50 | < 500 | < 50 | CC(C)C[C@@H]1CN(c2cccc(-c3n[nH]c4ncccc34)n2)CC[C@@H]1N [Compound 169]
< 500 | < 2800 | < 50 | CCC(O)(CC)C1CN(c2cccc(-c3n[nH]c4ncccc34)n2)CCN1 (stereo not drawn) [Compound 154]
< 500 | < 2800 | < 500 | OCC1CN(c2cccc(-c3n[nH]c4ncccc34)n2)CCN1 (stereo not drawn) [Compound 153]
> 1250 | > 1250 | < 50 | CC(C)(C)C[C@H]1CN(c2ccc(C(F)(F)F)c(-c3n[nH]c4ncccc34)n2)CCN1 [Compound 140]
< 500 | > 1250 | < 50 | COC[C@H]1CN(c2cccc(-c3n[nH]c4ncccc34)n2)CCN1 [Compound 184]
> 1250 | > 1250 | < 500 | FC(F)(F)c1ccc(N2CCN[C@@H](CC3CC3)C2)nc1-c1n[nH]c2ncccc12 [Compound 165]
